The values that follow are results of earlier work, collected in patent US20030099599A1, “Antibiotic spray” (priority 2001, published 2003).

The data set has as its system group A streptococcal tonsillopharyngitis. To be noted: recurrence within 2 months.

Consider penicillin, for which the “GAS tonsillopharyngitis treated with penicillin that recurs” value is “About 25%”.
